In publication PMC5117811 (Nature chemical biology, 2016):
Blank lines part the entries; values can stand above or below the compound they belong to.

Legend:
MYC = experiment: Immunoblot for MYC in MV4; assay type: cell-based, human; conditions: MV4;11 cells
HEXIM1 = experiment: Immunoblot for HEXIM1 in MV4; assay type: cell-based, human; conditions: MV4;11 cells, 10 nM, later time points (4–24 hours)
BRD4 = BRD4 (Homo sapiens, UniProt O60885); experiment: Immunoblot for BRD4 protein level in MV4; assay type: cell-based; conditions: MV4;11 cells
BRD4(1) [1] = molecular target: T1, BRD4(1) (Homo sapiens, UniProt O60885); experiment: BROMOscan
BRD4(2) = BRD4(2) (Homo sapiens, UniProt O60885); experiment: BROMOscan
BRD4(1,2) = BRD4(1,2) (Homo sapiens, UniProt O60885); experiment: BROMOscan
[2] = molecular target: BRD4 (full-length, short-iso.) (Homo sapiens, UniProt O60885); experiment: BROMOscan
BRD4(1) [3] = molecular target: T1, BRD4(1); experiment: BRD4; assay type: binding; conditions: BRD4(1) AlphaScreen, compared to JQ1
[4] = Plasma pharmacokinetic analyses in CD1 mice; conditions: 50 mg/kg intraperitoneally

effect on BRD4 protein stability (degradation) (BRD4): No effect on protein stability
displacement of phage expressing BRD4(1) (BRD4(1) [1]): picomolar
displacement of phage expressing BRD4(2) (BRD4(2)): picomolar
displacement of phage expressing tandem bromodomain construct BRD4(1,2) (BRD4(1,2)): picomolar
displacement of phage expressing full length protein BRD4(full) [2]: picomolar
Structure (SMILES): COC(=O)C[C@@H]1N=C(c2ccc(Cl)cc2)c2c(sc(C(=O)NCCOCCNC(=O)C[C@@H]3N=C(c4ccc(Cl)cc4)c4c(sc(C)c4C)-n4c(C)nnc43)c2C)-n2c(C)nnc21 [(6S+2S)-PEG1, Methyl 2-((S)-4-(4-chlorophenyl)-2-((2-(2-(2-((S)-4-(4-chlorophenyl)-2,3,9-trimethyl-6H-thieno[3,2-f][1,2,4]triazolo[4,3-a][1,4]diazepin-6-yl)acetamido)ethoxy)ethyl)carbamoyl)-3,9-dimethyl-6H-thieno[3,2-f][1,2,4]triazolo[4,3-a][1,4]diazepin-6-yl)acetate]
time of maximum effect on MYC (MYC; 10 nM): 2 h
lowest concentration at which MYC was downregulated (MYC; two hours of treatment): 10 nM
HEXIM1 expression (HEXIM1): upregulation

increase in biochemical potency (BRD4(1) [3]): 20 fold
Structure (SMILES): COC(=O)C[C@@H]1N=C(c2ccc(Cl)cc2)c2c(sc(C(=O)NCCOCCNC(=O)c3sc4c(c3C)C(c3ccc(Cl)cc3)=N[C@@H](CC(=O)OC)c3nnc(C)n3-4)c2C)-n2c(C)nnc21 [(2S+2S)-PEG1, Dimethyl 2,2'-((6S,6'S)-(((oxybis(ethane-2,1-diyl))bis(azanediyl))bis(carbonyl))bis(4-(4-chlorophenyl)-3,9-dimethyl-6H-thieno[3,2-f][1,2,4]triazolo[4,3-a][1,4]diazepine-2,6-diyl))diacetate]

PK properties [4]: comparable PK properties to MT1
Structure (SMILES): COC(=O)C[C@@H]1N=C(c2ccc(Cl)cc2)c2c(sc(C(=O)NCCNC(=O)C[C@@H]3N=C(c4ccc(Cl)cc4)c4c(sc(C)c4C)-n4c(C)nnc43)c2C)-n2c(C)nnc21 [(6S+2S)-PEG0, Methyl 2-((S)-4-(4-chlorophenyl)-2-((2-(2-((S)-4-(4-chlorophenyl)-2,3,9-trimethyl-6H-thieno[3,2-f][1,2,4]triazolo[4,3-a][1,4]diazepin-6-yl)acetamido)ethyl)carbamoyl)-3,9-dimethyl-6H-thieno[3,2-f][1,2,4]triazolo[4,3-a][1,4]diazepin-6-yl)acetate]
